Source: US20250049830A1, “PHARMACEUTICAL COMPOSITION FOR PREVENTING OR TREATING CANCER, COMPRISING SGLT-2 INHIBITOR AND GOSSYPOL” (HAIM BIO., LTD., priority 2019, published 2025)
Entries after “also recorded” stand apart in the source; their conditions may differ.

Columns and labels:
Assay type in all cases: cell-based, human
[1] = tested on: brain cancer cell line U87; assay: Cell viability (Cell Counting Kit-8) of brain cancer cell line U87 after drug treatment; details: SGLT-2 inhibitor with gossypol and phenformin, FIGS. 3b, 3c
Method: The present inventors obtained the human lung cancer cell line A549, the pancreatic cancer cell line Mia Paca-2, the brain cancer cell line U87, and the colon cancer cell line SW480 from the American Type Culture Collection (ATCC). Each of the cell lines was cultured according to the ATCC guidelines in 10% FBS-containing RPMI 1640, DMEM, or Eagle's MEM medium supplemented with 1% penicillin-streptomycin (Gibco) in a 5% CO2 incubator (HERAcell 150i, Thermo Scientific, Waltham, MA, USA) at 37° C. and was used in the experiment.
At the same time, the number of cells in each sample was measured with a cell viability assay kit (Cell Counting Kit-8), and the measured value was calculated as a percentage of the number of cells in the negative control group to compare the number of cells between the samples. All experiments were repeated several times and the measured values were averaged.
According to the methods of Example 1 and Example 2, the brain cancer cell line U87 cells were cultured, and then each drug was administered to the cells, followed by analysis of the cell viability.

[2] = tested on: U87 tumor spheroids; assay: Tumor spheroid size/diameter of U87 cell line after drug administration; details: for size of the tumor spheroid cells (cell photographs): 14 days, gossypol 5 μM, phenformin 10 μM; for size of the cells (cell photographs): SGLT-2 inhibitor alone or in combination with gossypol and phenformin, FIG. 9
Method: The U87 cell line cells prepared according to the method of Example 1 were seeded into a 96-well plate at a density of 1.0×10^2 cells/well in DMEM media containing 2% Matrigel (Corning, NY, USA), and stabilized in a 5% CO2 incubator at 37° C. for 3 days to form tumor spheroids. After stabilization, the cells were cultured in a 5% CO2 incubator at 37° C. for 14 days. […] Referring to FIGS. 6b, 7b and 8b, the rate of change in diameter of the spheroid in the graph was calculated as a percentage based on the change in the average diameter after administration of each drug compared to the average diameter of tumor spheroid cells seeded in the 96-well plate.

[3] = tested on: pancreatic cancer cell line Mia Paca-2; assay: Cell viability (Cell Counting Kit-8) of pancreatic cancer cell line Mia Paca-2 after drug treatment; details: SGLT-2 inhibitor with gossypol and/or phenformin, FIGS. 2b, 2c
Method: (§1) Each of the cell lines was cultured according to the ATCC guidelines in 10% FBS-containing RPMI 1640, DMEM, or Eagle's MEM medium supplemented with 1% penicillin-streptomycin (Gibco) in a 5% CO2 incubator (HERAcell 150i, Thermo Scientific, Waltham, MA, USA) at 37° C. and was used in the experiment.
At the same time, the number of cells in each sample was measured with a cell viability assay kit (Cell Counting Kit-8), and the measured value was calculated as a percentage of the number of cells in the negative control group to compare the number of cells between the samples. All experiments were repeated several times and the measured values were averaged. […] The numerical values on the drawings according to all examples below are expressed as mean±standard error of the mean (SEM), and * indicates statistical significance (**P<0.01, ***P<0.001).
According to the methods of Example 1 and Example 2, the pancreatic cancer cell line Mia Paca-2 cells were cultured, and then each drug was administered to the cells, followed by analysis of the cell viability.

[4] = tested on: lung cancer cell line A549; assay: Cell viability (Cell Counting Kit-8) of lung cancer cell line A549 after drug treatment; details: SGLT-2 inhibitor 50 μM, gossypol 5 μM, phenformin 10 μM, FIG. 1c
Method: as §1
The lung cancer cell line A549 cells prepared by the method of Example 1 were seeded into a 96-well plate at a concentration of 1×10^4 cells/well and cultured overnight at 37° C. in a 5% CO2 environment. […]
Thereafter, 100 μL of each cell culture and 10 μL of incubation buffer (CCK) were mixed together, placed in a 96-well plate, and incubated at room temperature for 1 hour, and then the absorbance was measured at a wavelength of 450 nm using a spectrophotometer (Synergy HTX Multi-Reader, BioTek, Winooski, VT, USA). At the same time, the number of cells in each sample was measured with a cell viability assay kit (Cell Counting Kit-8), and the measured value was calculated as a percentage of the number of cells in the negative control group to compare the number of cells between the samples. All experiments were repeated several times and the measured values were averaged.

[5] = tested on: lung cancer line A549 cells; assay: Oxygen consumption rate (OCR) during mitochondrial respiration, Seahorse XF24, A549; details: SGLT-2 inhibitor 50 μM, gossypol 5 μM, phenformin 10 μM, alone or in combination, overnight, FIG. 10
Method: In order to measure mitochondrial respiration, which is the main energy metabolic process of cells, the present inventors analyzed cellular oxygen consumption rate (OCR) by measuring intracellular oxygen concentration. The oxygen consumption rate that occurs during energy metabolism can be a measure of how actively cancer cell division occurs during the metabolic process of cancer cells. 1 mL of XF Calibrant buffer (Agilent Technologies) was added to a sensor cartridge (Agilent Technologies, Palo Alto, CA, USA) and incubated in a non-CO2 incubator overnight at 37° C. […] In addition, the XF24 microplate was placed in the Agilent seahorse XF24 (Agilent Technologies) instrument, and OCR was measured. Here, the measured values were compared with percentage values based on picomoles per minute (pM/min).

[6] = Comparative Example 1: canagliflozin 50 μM, FIG. 6a
[7] = Comparative Example 3: empagliflozin 75 μM, FIG. 8a

Row | Compound | cancer therapeutic effect of co-administration compared to SGLT-2 inhibitor alone [1] | size of the tumor spheroid cells (cell photographs) [2, 6] | size of the cells (cell photographs) [2] | cancer therapeutic effect of co-administration compared to SGLT-2 inhibitor alone [3] | synergistic effect when administered in combination with gossypol and phenformin [4] | size of the tumor spheroid cells (cell photographs) [2, 7] | oxygen consumption rate [5] | size of the tumor spheroid cells (cell photographs) ([2]; Comparative Example 2: dapagliflozin 75 μM, FIG. 7a)
1 | Cc1ccc([C@@H]2O[C@H](CO)[C@@H](O)[C@H](O)[C@H]2O)cc1Cc1ccc(-c2ccc(F)cc2)s1 [canagliflozin] | better effect | decreased | decreased compared to that in the control group; also recorded: most significant reduction in the cell size | more effective | highest synergistic effect | – | – | –
2 | OC[C@H]1O[C@@H](c2ccc(Cl)c(Cc3ccc(O[C@H]4CCOC4)cc3)c2)[C@H](O)[C@@H](O)[C@@H]1O [empagliflozin] | – | – | decreased compared to that in the control group | – | – | decreased | also low | –
3 | [H]/N=C(/N)N/C(=N/[H])NCCc1ccccc1 [phenformin] | – | decreased | – | – | – | decreased | – | decreased
